# Assay results reported in paper PMC10893631, “Receptor-based pharmacophore modeling, molecular docking, synthesis and biological evaluation of novel VEGFR-2, FGFR-1, and BRAF multi-kinase inhibitors” (BMC Chemistry, 2024).
# How the values were obtained:
# Assay in all cases: NCI SRB growth inhibition (single dose 10 µM / five-dose)
# Type in all cases: cell-based, human
# [1] = system: A549/ATCC; settings: Homo sapiens; for inhibition at 10 µM: A549/ATCC (Non-small cell lung cancer), read-out: GI%; for GI50: A549/ATCC, Non-small cell lung cancer, five-dose
# Outline: (§1)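 SRB protein stain of fixed cells; compounds tested at one dose (10 µM) or five serial dilutions (10-fold or ½ log), diluted from DMSO stock. Cells plated 24 h before dosing, with a time-zero plate fixed in TCA. Percent growth derived from Tz, control and test absorbances; TGI taken where Ti = Tz.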
# [2] = system: ACHN; settings: Homo sapiens; for inhibition at 10 µM: ACHN (Renal cancer), read-out: GI%; for GI50: ACHN, Renal cancer, five-dose
# Outline: as §1
# [3] = system: NCI/ADR-RES; settings: Homo sapiens; for inhibition at 10 µM: NCI/ADR-RES (Ovarian cancer), read-out: GI%; for GI50: NCI/ADR-RES, Ovarian cancer, five-dose
# Outline: as §1
# [4] = system: SR; settings: Homo sapiens; for inhibition at 10 µM: SR (Leukemia), read-out: GI%; for GI50: SR, Leukemia, five-dose
# Outline: as §1
# [5] = system: SK-OV-3; settings: Homo sapiens; for inhibition at 10 µM: SK-OV-3 (Ovarian cancer), read-out: GI%; for GI50: SK-OV-3, Ovarian cancer, five-dose
# Outline: as §1
# [6] = system: NCI-H460; settings: Homo sapiens; for inhibition at 10 µM: NCI-H460 (Non-small cell lung cancer), read-out: GI%; for GI50: NCI-H460, Non-small cell lung cancer, five-dose
# Outline: as §1
# [7] = system: CAKI-1; settings: Homo sapiens; for inhibition at 10 µM: CAKI-1 (Renal cancer), read-out: GI%; for GI50: CAKI-1, Renal cancer, five-dose
# Outline: as §1
# [8] = system: COLO 205; settings: Homo sapiens; for inhibition at 10 µM: COLO 205 (Colon cancer), read-out: GI%; for GI50: COLO 205, Colon cancer, five-dose
# Outline: as §1
# [9] = system: OVCAR-3; settings: Homo sapiens; for inhibition at 10 µM: OVCAR-3 (Ovarian cancer), read-out: GI%; for GI50: OVCAR-3, Ovarian cancer, five-dose
# Outline: as §1
# [10] = system: CCRF-CEM; settings: Homo sapiens; for inhibition at 10 µM: CCRF-CEM (Leukemia), read-out: GI%; for GI50: CCRF-CEM, Leukemia, five-dose
# Outline: as §1
# [11] = system: K-562; settings: Homo sapiens, K562; for inhibition at 10 µM: K-562 (Leukemia), read-out: GI%; for GI50: K-562, Leukemia, five-dose
# Outline: as §1
# [12] = system: SN12C; settings: Homo sapiens; for GI50: SN12C, Renal cancer, five-dose
# Outline: as §1
# [13] = system: OVCAR-8; settings: Homo sapiens; for inhibition at 10 µM: OVCAR-8 (Ovarian cancer), read-out: GI%; for GI50: OVCAR-8, Ovarian cancer, five-dose
# Outline: as §1
# [14] = system: M14; settings: Homo sapiens; for inhibition at 10 µM: M14 (Melanoma), read-out: GI%; for GI50: M14, Melanoma, five-dose
# Outline: as §1
# [15] = system: SF-295; settings: Homo sapiens; for inhibition at 10 µM: SF-295 (CNS cancer), read-out: GI%; for GI50: SF-295, CNS cancer, five-dose
# Outline: as §1
# [16] = system: SK-MEL-2; settings: Homo sapiens; for inhibition at 10 µM: SK-MEL-2 (Melanoma), read-out: GI%; for GI50: SK-MEL-2, Melanoma, five-dose
# Outline: as §1
# [17] = system: HT29; settings: Homo sapiens, HT-29; for inhibition at 10 µM: HT29 (Colon cancer), read-out: GI%; for GI50: HT29, Colon cancer, five-dose
# Outline: as §1
# [18] = system: OVCAR-4; settings: Homo sapiens; for inhibition at 10 µM: OVCAR-4 (Ovarian cancer), read-out: GI%; for GI50: OVCAR-4, Ovarian cancer, five-dose
# Outline: as §1
# [19] = system: MDA-MB-435; settings: Homo sapiens; for inhibition at 10 µM: MDA-MB-435 (Melanoma), read-out: GI%; for GI50: MDA-MB-435, Melanoma, five-dose
# Outline: as §1
# [20] = system: DU-145; settings: Homo sapiens; for inhibition at 10 µM: DU-145 (Prostate cancer), read-out: GI%; for GI50: DU-145, Prostate cancer, five-dose
# Outline: as §1
# [21] = system: LOX IMVI; settings: Homo sapiens; for inhibition at 10 µM: LOX IMVI (Melanoma), read-out: GI%; for GI50: LOX IMVI, Melanoma, five-dose
# Outline: as §1
# [22] = system: IGROV1; settings: Homo sapiens, IGROV-1; for inhibition at 10 µM: IGROV1 (Ovarian cancer), read-out: GI%; for GI50: IGROV1, Ovarian cancer, five-dose
# Outline: as §1
# [23] = system: EKVX; settings: Homo sapiens; for inhibition at 10 µM: EKVX (Non-small cell lung cancer), read-out: GI%; for GI50: EKVX, Non-small cell lung cancer, five-dose
# Outline: as §1
# [24] = system: BT-549; settings: Homo sapiens; for inhibition at 10 µM: BT-549 (Breast cancer), read-out: GI%; for GI50: BT-549, Breast cancer, five-dose
# Outline: as §1
# [25] = system: NCI-H322M; settings: Homo sapiens; for inhibition at 10 µM: NCI-H322M (Non-small cell lung cancer), read-out: GI%; for GI50: NCI-H322M, Non-small cell lung cancer, five-dose
# Outline: as §1
# [26] = system: NCI-H522; settings: Homo sapiens; for inhibition at 10 µM: NCI-H522 (Non-small cell lung cancer), read-out: GI%; for GI50: NCI-H522, Non-small cell lung cancer, five-dose
# Outline: as §1
smiles,measurement,setting,value
"COc1ccc(-c2nc3cc(C(=O)NN=Cc4cccc(OC)c4O)ccc3[nH]2)cc1 [8k, N'-(2-Hydroxy-3-methoxybenzylidene)-2-(4-methoxyphenyl)-1H-benzo[d]imidazole-5-carbohydrazide]",inhibition at 10 µM,[1],76.7%
same,GI50,[1],9040 nM
same,inhibition at 10 µM,[2],87.7%
same,GI50,[2],4190 nM
same,inhibition at 10 µM,[3],28.1%
same,GI50,[3],> 100000 nM
same,inhibition at 10 µM,[4],> 100%
same,GI50,[4],2060 nM
same,inhibition at 10 µM,[5],> 100%
same,GI50,[5],4310 nM
same,inhibition at 10 µM,[6],> 100%
same,GI50,[6],3270 nM
same,inhibition at 10 µM,[7],84.6%
same,GI50,[7],3640 nM
same,inhibition at 10 µM,[8],> 100%
same,GI50,[8],3940 nM
same,inhibition at 10 µM,[9],> 100%
same,GI50,[9],1250 nM
same,inhibition at 10 µM,[10],> 100%
same,GI50,[10],1050 nM
same,inhibition at 10 µM,[11],> 100%
same,GI50,[11],3740 nM
same,GI50,[12],3810 nM
same,inhibition at 10 µM,[13],> 100%
same,GI50,[13],2710 nM
same,inhibition at 10 µM,[14],91%
same,GI50,[14],2810 nM
same,inhibition at 10 µM,[15],96.4%
same,GI50,[15],2480 nM
same,inhibition at 10 µM,[16],39.1%
same,GI50,[16],6300 nM
same,inhibition at 10 µM,[17],> 100%
same,GI50,[17],3670 nM
same,inhibition at 10 µM,[18],86%
same,GI50,[18],3260 nM
same,inhibition at 10 µM,[19],76%
same,GI50,[19],6200 nM
same,inhibition at 10 µM,[20],85.1%
same,GI50,[20],5060 nM
same,inhibition at 10 µM,[21],> 100%
same,GI50,[21],2340 nM
same,inhibition at 10 µM,[22],84.8%
same,GI50,[22],3520 nM
same,inhibition at 10 µM,[23],98.1%
same,GI50,[23],2300 nM
same,inhibition at 10 µM,[24],> 100%
same,GI50,[24],2850 nM
same,inhibition at 10 µM,[25],95.9%
same,GI50,[25],3040 nM
same,inhibition at 10 µM,[26],> 100%
same,GI50,[26],2980 nM
"O=C(NN=Cc1ccccc1O)c1ccc2[nH]c(-c3ccc(Cl)cc3)nc2c1 [8o, 2-(4-Chlorophenyl)-N'-(2-hydroxybenzylidene)-1H-benzo[d]imidazole-5-carbohydrazide]",inhibition at 10 µM,[1],87%
same,GI50,[1],1800 nM
same,inhibition at 10 µM,[2],94.2%
same,GI50,[2],810 nM
same,inhibition at 10 µM,[3],56.4%
same,GI50,[3],1150 nM
same,inhibition at 10 µM,[4],75.2%
same,GI50,[4],120 nM
same,GI50,[5],4530 nM
same,inhibition at 10 µM,[6],> 100%
same,GI50,[6],250 nM
same,inhibition at 10 µM,[7],> 100%
same,GI50,[7],220 nM
same,GI50,[8],890 nM
same,inhibition at 10 µM,[9],> 100%
same,GI50,[9],190 nM
same,inhibition at 10 µM,[10],> 100%
same,GI50,[10],> 38800 nM
same,inhibition at 10 µM,[11],85.5%
same,GI50,[11],150 nM
same,inhibition at 10 µM,"[12]; SN12C (Renal cancer), 10 µM, read-out: GI%",59.4%
same,GI50,[12],3410 nM
same,inhibition at 10 µM,[13],> 100%
same,GI50,[13],980 nM
same,inhibition at 10 µM,[14],90.9%
same,GI50,[14],1810 nM
same,inhibition at 10 µM,[15],> 100%
same,GI50,[15],1600 nM
same,inhibition at 10 µM,[16],> 100%
same,GI50,[16],4600 nM
same,inhibition at 10 µM,[17],> 100%
same,GI50,[17],1080 nM
same,inhibition at 10 µM,[18],> 100%
same,GI50,[18],1250 nM
same,inhibition at 10 µM,[19],> 100%
same,GI50,[19],530 nM
same,inhibition at 10 µM,[20],> 100%
same,GI50,[20],1360 nM
same,inhibition at 10 µM,[21],> 100%
same,GI50,[21],430 nM
same,inhibition at 10 µM,[22],84.3%
same,GI50,[22],950 nM
same,inhibition at 10 µM,[23],67.2%
same,GI50,[23],9310 nM
same,inhibition at 10 µM,[24],60.6%
same,GI50,[24],3570 nM
same,inhibition at 10 µM,[25],70.2%
same,GI50,[25],1380 nM
same,inhibition at 10 µM,[26],> 100%
same,GI50,[26],260 nM
"COc1cccc(C=NNC(=O)c2ccc3[nH]c(-c4ccc(Cl)cc4)nc3c2)c1O [8r, 2-(4-Chlorophenyl)-N'-(2-hydroxy-3-methoxybenzylidene)-1H-benzo[d]imidazole-5-carbohydrazide]",inhibition at 10 µM,[1],> 100%
same,GI50,[1],3680 nM
same,inhibition at 10 µM,[2],> 100%
same,GI50,[2],2920 nM
same,inhibition at 10 µM,[3],49.3%
same,GI50,[3],> 100000 nM
same,inhibition at 10 µM,[4],> 100%
same,GI50,[4],500 nM
same,inhibition at 10 µM,[5],> 100%
same,GI50,[5],2080 nM
same,inhibition at 10 µM,[6],> 100%
same,GI50,[6],1350 nM
same,inhibition at 10 µM,[7],> 100%
same,GI50,[7],2310 nM
same,inhibition at 10 µM,[8],> 100%
same,GI50,[8],2330 nM
same,inhibition at 10 µM,[9],> 100%
same,GI50,[9],560 nM
same,inhibition at 10 µM,[10],> 100%
same,GI50,[10],430 nM
same,inhibition at 10 µM,[11],> 100%
same,GI50,[11],490 nM
same,GI50,[12],1720 nM
same,inhibition at 10 µM,[13],> 100%
same,GI50,[13],1580 nM
same,inhibition at 10 µM,[14],> 100%
same,GI50,[14],2070 nM
same,inhibition at 10 µM,[15],> 100%
same,GI50,[15],2200 nM
same,inhibition at 10 µM,[16],> 100%
same,inhibition at 10 µM,[17],> 100%
same,GI50,[17],4170 nM
same,inhibition at 10 µM,[18],> 100%
same,GI50,[18],1410 nM
same,inhibition at 10 µM,[19],> 100%
same,GI50,[19],1810 nM
same,inhibition at 10 µM,[20],> 100%
same,GI50,[20],1990 nM
same,inhibition at 10 µM,[21],> 100%
same,GI50,[21],1180 nM
same,inhibition at 10 µM,[22],> 100%
same,GI50,[22],1250 nM
same,inhibition at 10 µM,[23],> 100%
same,GI50,[23],4560 nM
same,inhibition at 10 µM,[24],> 100%
same,GI50,[24],1360 nM
same,inhibition at 10 µM,[25],> 100%
same,GI50,[25],1590 nM
same,inhibition at 10 µM,[26],> 100%
same,GI50,[26],1170 nM
